Test results from patent US20100086519A1, “Treatment of Hepatitis C Infection With Metalloporphyrins” (The Charlotte-Mecklenburg Hospital Authority d/b/a …, priority 2008, published 2010).
Read-outs that look alike come from different tables or passages of the source.

Tests used:
[1] = biological target: T1, HCV NS5A protein (Hepatitis C virus genotype 1b, UniProt Q9WMX2, S2204I); test: NS5A protein levels by Western blot in Con1 cells; assay type: cell-based; settings: ZnMP 0, 1, 5, 10 μM, 4 hours, FIG. 1B
T1 construct: processed into structural (C, E1, E2) and nonstructural (NS2, NS3, NS4A, NS4B, NS5A and NS5B) proteins; expressed in transfected cells; host or cells: Con1 cells (Huh-7.5 with the full-length genotype 1b replicon)
Description: (§1) Bartenschlager (University of Heidelberg, Heidelberg, Germany).
(§2) Biochim Biophys Acta 2008; 1779:195-203.

[2] = tested on: HCV core protein; settings: J6/JFH1 RNA transfected Huh-7.5 cells
Method: In brief, total proteins (30-50 μg) were separated on 4-15% gradient SDS-PAGE gels. After electrophoretic transfer onto ImmunBlot PVDF membrane, membranes were blocked for 1 hour in PBS containing 5% nonfat dry milk and 0.1% Tween-20, and then incubated overnight with primary antibody at 4° C. The dilutions of the primary antibodies were as follows: 1:2000 for anti-HCV NS5A and anti-GAPDH antibodies, and 1:5000 for anti-HCV core antibody. The membranes were then incubated for 1 hour with horseradish peroxidase-conjugated secondary antibodies (dilution 1:10,000). Finally, the bound antibodies were visualized with the ECL-Plus chemiluminescence system according to the manufacturer's protocol. A Kodak 1DV3.6 computer-based imaging system (Rochester, N.Y.) was used to measure the relative optical density of each specific band obtained after Western blotting. Data are expressed as percentages of the controls (corresponding to the value obtained with the vehicle-treated cells), which were assigned values of one.
For HCV RNA transfection, Huh-7.5 cells were plated in 24-well plates one day prior to transfection and transfected at 70˜80% confluence. […]
Huh-7.5 cells were transfected with 2 μg/well of J6/JFH1 RNA by Lipofectamine 2000. […] HCV RNA was quantified by qRT-PCR, and HCV core, NS5A and GAPDH protein levels were measured by Western blots.

[3] = tested on: HCV core protein; settings: Huh-7/T7 cells, pFK-Con1/GDD, FIG. 7D; much less than in Con1 replicon system
Method: (§4) In brief, total proteins (30-50 μg) were separated on 4-15% gradient SDS-PAGE gels. After electrophoretic transfer onto ImmunBlot PVDF membrane, membranes were blocked for 1 hour in PBS containing 5% nonfat dry milk and 0.1% Tween-20, and then incubated overnight with primary antibody at 4° C. The dilutions of the primary antibodies were as follows: 1:2000 for anti-HCV NS5A and anti-GAPDH antibodies, and 1:5000 for anti-HCV core antibody. The membranes were then incubated for 1 hour with horseradish peroxidase-conjugated secondary antibodies (dilution 1:10,000). Finally, the bound antibodies were visualized with the ECL-Plus chemiluminescence system according to the manufacturer's protocol. A Kodak 1DV3.6 computer-based imaging system (Rochester, N.Y.) was used to measure the relative optical density of each specific band obtained after Western blotting. Data are expressed as percentages of the controls (corresponding to the value obtained with the vehicle-treated cells), which were assigned values of one. […]
To evaluate whether ZnMP-mediated degradation of NS5A may play a role in inhibiting HCV replication, Con1 full-length HCV replicon Huh-7.5 cells were treated with different concentrations of ZnMP for 24 hours. […] HCV virus RNA was quantified by qRT-PCR, and the levels of HCV core, NS5A and GAPDH protein were measured by Western blots. […]

[4] = tested on: HCV replicon RNA; test: HCV RNA by qRT-PCR in Con1 full-length HCV replicon Huh-7.5 cells; assay type: cell-based, hepatitis C virus; settings: different concentrations, 24 hours, FIG. 7A
Method: as §1
Total RNA from treated cells was extracted and cDNA was synthesized as described in Hou et al. Real time quantitative RT-PCR was performed using a MyiQ™ Single Color Real-Time PCR Detection System from Bio-Rad (Hercules, Calif.) and iQ™ SYBR Green Supermix Real-Time PCR kit (Bio-Rad). Samples without template and without reverse transcriptase were included as negative controls, which, as expected, produced negligible signals (Ct values>35). Fold-change values were calculated by comparative Ct analysis after normalizing for the quantity of GAPDH in the same samples.
(§3) Total RNA and proteins were extracted.

[5] = tested on: HCV; test: anti-viral activity (summary statement); assay type: cell-based, hepatitis C virus
[6] = biological target: T2, HCV NS5A protein (Hepatitis C virus genotype 1b, UniProt Q9WMX2); test: NS5A protein half-life determination with cycloheximide in 9-13 cells; assay type: cell-based; set-up: processed into structural (C, E1, E2) and nonstructural (NS2, NS3, NS4A, NS4B, NS5A and NS5B) proteins; expressed in transfected cells; host or cells: 9-13 cells (human hepatoma cells with a replicating HCV NS3-NS5B region); settings: 100 ug/mL CHX, 10 μM ZnMP, 0-4 h, FIGS. 4A, 4B
Method: 9-13 cells were incubated with 100 ug/mL cycloheximide (CHX) in the presence or absence of 10 uM ZnMP. Western blots were performed using anti-HCV NS5A and anti-GAPDH antibodies. Band intensities of Western blots were measured by densitometric analysis. GAPDH bands were used as internal controls to correct for protein loadings.
9-13 cells were treated with 100 ug/mL cycloheximide (CHX) and with or without 10 μM ZnMP for the indicated periods (0, 0.5, 1, 2, 4 h), and then cells were harvested and total proteins were isolated. Proteins were separated on 4-15% SDS-polyacrylamide gel, transferred to a PVDF membrane, anti-HCV NS5A or GAPDH specific antibodies were used to detect NS5A or GAPDH protein levels by Western blot. […] The band intensity of NS5A from untreated sample (0 h) was set at 1.

[7] = tested on: HCV core protein
Method: as §4
NS5A protein levels in 9-13 and Con1 cells, core protein levels in CNS3 cells, and NS5A and core protein levels in Huh-7/T7 cells transfected with pFK-Con1/GND (a plasmid encoding a replication deficient variant of Con1) exposed to different concentrations of ZnMP (0, 1, 5, 10 μM) for 4 hours were evaluated. […]

[8] = tested on: 9-13 cells; test: CellTiter-Glo luminescent cell viability assay; assay type: cell-based, human
Method: The effect of ZnMP on cytotoxicity of treated cells was measured using CellTiter-Glo® Reagent by determining the number of viable cells based on quantitation of the ATP present, which signaled the presence of metabolically active cells. Cells were plated into a 96-well plate with 2500 to 5000 cells/well 24 hours before treatment. Cells were treated with indicated concentrations of ZnMP for 2, 6 and 24 hours in triplicate, an equal volume of CellTiter-Glo® Reagent was added to each well of cell culture medium. The luminescence was read on a Synergy HT microplate reader from Bio-Tek (Winooski, Vt.) with integration time set for 0.25 to 1 second. Decreases in luminescence were taken as an index of cellular cytotoxicity.
In this Example, the cytotoxicity of metalloporphyrins was evaluated. 9-13 cells were seeded into a 96-well plate 24 hours before treatment. Cells were incubated with the indicated concentrations of ZnMP for 0, 2, 6, 24 hours, and CellTiter-Glo® Reagent was added for CellTiter-Glo luminescent cell viability assay on a Synergy HT microplate reader with integration time set for 0.25 to 1 second. Decreases in luminescence were taken as an index of cellular cytotoxicity. * differs from vehicle, P<0.05, Data represent means±SE of triplicate determinations. […] Therefore, ZnMP concentrations not exceeding 20 μM for up to 6 hours or up to 10 μM for up to 24 hours were used.

[9] = biological target: T2, HCV NS5A protein; test: NS5A protein levels by Western blot in 9-13 cells; assay type: cell-based; set-up: processed into structural (C, E1, E2) and nonstructural (NS2, NS3, NS4A, NS4B, NS5A and NS5B) proteins; expressed in transfected cells; host or cells: 9-13 cells (human hepatoma cells with a replicating HCV NS3-NS5B region)
Description: as §1, §2

[10] = tested on: HCV core, NS5A; test: HCV protein levels by Western blot in Con1 cells, 24 hours; assay type: cell-based, hepatitis C virus; settings: different concentrations, FIG. 7B
Description: as §1, §2, §3

T2 sequence (Q9WMX2 1973-2419): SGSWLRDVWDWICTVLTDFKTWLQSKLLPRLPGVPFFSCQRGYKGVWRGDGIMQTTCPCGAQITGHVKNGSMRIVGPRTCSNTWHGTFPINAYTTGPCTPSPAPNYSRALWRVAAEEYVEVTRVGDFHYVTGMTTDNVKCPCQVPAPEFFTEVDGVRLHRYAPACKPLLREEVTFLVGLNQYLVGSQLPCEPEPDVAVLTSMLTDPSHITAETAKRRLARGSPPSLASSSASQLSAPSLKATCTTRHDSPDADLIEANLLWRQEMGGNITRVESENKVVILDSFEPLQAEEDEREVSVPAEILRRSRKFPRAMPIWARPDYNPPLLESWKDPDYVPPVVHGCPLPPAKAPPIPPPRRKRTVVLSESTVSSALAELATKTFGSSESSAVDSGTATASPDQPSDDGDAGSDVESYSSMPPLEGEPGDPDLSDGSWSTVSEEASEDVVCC
T1 sequence (Q9WMX2 1973-2419 S2204I): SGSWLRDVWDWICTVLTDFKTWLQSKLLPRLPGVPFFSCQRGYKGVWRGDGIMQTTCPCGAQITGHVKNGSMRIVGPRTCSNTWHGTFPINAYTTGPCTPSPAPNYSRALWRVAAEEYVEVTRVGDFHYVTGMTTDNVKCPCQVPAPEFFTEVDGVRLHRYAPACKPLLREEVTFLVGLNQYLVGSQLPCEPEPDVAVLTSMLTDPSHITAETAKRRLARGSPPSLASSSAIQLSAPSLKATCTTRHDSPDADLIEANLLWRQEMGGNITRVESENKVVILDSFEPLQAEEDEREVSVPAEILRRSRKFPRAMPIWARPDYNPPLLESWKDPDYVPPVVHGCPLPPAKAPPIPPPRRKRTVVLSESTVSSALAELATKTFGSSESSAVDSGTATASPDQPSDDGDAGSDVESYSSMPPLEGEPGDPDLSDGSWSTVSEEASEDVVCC

With `CCC1=C(C)c2cc3[nH]c(cc4nc(cc5[n-]c(cc1n2)c(C)c5CCC(=O)[O-])C(CCC(=O)[O-])=C4C)c(C)c3CC.[H+].[Zn+2]` [ZnMP, Zinc mesoporphyrin] the NS5A protein levels [1] was “marked decrease”, the core protein levels ([2]; 4 h) was “not affected” and the core protein levels ([2]; 24 h) was “decrease”. For the same compound, the “HCV core protein levels” value [3] was “reduction of core”, the “viral RNA levels” value [4] was “dose-dependent reduction” and the “anti-viral activity (summary statement)” value [5] was “display anti-viral activity”. For the same compound, the “NS5A protein levels in presence of cycloheximide” value [6] was “greatly and rapidly reduced”, the “HCV core protein levels” value ([7]; Huh-7/T7 cells transfected with pFK-Con1/GND, 0, 1, 5, 10 μM, 4 hours, FIG. 1D) was “no detectable effects” and the “HCV core protein levels” value ([7]; Huh-7/T7 cells, pFK-Con1/GND, 24 h, FIG. 7C) was “remained unaffected”. The cell viability ([8]; 20 μM, 2-6 hours) was “no significant effect”, the cytotoxicity ([8]; 20 μM, 24 hours, p<0.05) was “significant cytotoxicity” and the cell viability ([8]; 1-10 μM, 2-24 hours) was “no significant effect”. For the same compound, the NS5A protein levels ([9]; 9-13 cells, 10 μM ZnMP alone, 10 and 24 hours, FIG. 9B) was “slightly increased”, the NS5A protein levels ([9]; 9-13 cells, 10 μM ZnMP alone, as little as 2 hours, FIG. 9B) was “rapid and marked down-regulation” and the “NS5A protein levels, time course” value ([9]; 9-13 cells, 10 μM, 0, 2, 4, 6 h, FIG. 2B) was “markedly and rapidly decreased”. For the same compound, the “NS5A protein levels before immunoprecipitation” value ([9]; 9-13 cells, 10 μM, 4 h, FIG. 6A) was “down-regulation”, the NS5A protein levels ([9]; 9-13 cells, 10 μM, 4 hours, FIG. 2A) was “decreased” and the NS5A protein levels ([9]; 9-13 cells, ZnMP 0, 1, 5, 10 μM, 4 hours, FIG. 1A) was “marked decrease”. The “reduction of NS5A protein levels” value ([9]; about 1 μM, 4 hours, stated for bar graphs of FIGS. 1A/1B (9-13 and Con1 cells)) was “about 60%” and the HCV protein levels [10] was “dose-dependent reduction”.
